The results in this text go back to patent publication US20050118715A1, “Modulation of stem and progenitor cell differentiation, assays, and uses thereof” (priority 2002, published 2005).

This assay relates to Sca+Lin- progenitors. Briefly: Generation of murine dendritic cells from bone marrow Sca+ progenitors, cell surface phenotype (Example 13). The assay is classed as cell-based, C57BL/6 mice. To be noted: 10 μM. The source says: Mouse bone marrow from inbred C57BL/6 mice are obtained from Clonetics. Hematopoietic Sca+Lin− progenitors are enriched using SpinSep murine progenitor enrichment cocktail (StemCell Technologies) and cultured in Iscove's MDM with BUI 95000 (StemCell Technologies) in the presence of murine growth factors SCF, Flt3L, GM-CSF and M-CSF for 9 days, to promote expansion of Sca+ cells and a DC precursor phenotype and then in the presence of GM-CSF and TNF-α for 3 additional days to drive the cells to an immature DC phenotype. Enriched Sca+Lin− cells are cultured in the presence of DMSO (0.1%), SelCIDs™ at 10 μM or all-trans retinoic acid (ATRA) (ICN Biomedicals) at 10 μM from day 0. Compounds are added to cells at day 0 and day 9.
Analysis of Murine cell surface phenotype: murine cells are processed for double staining (14 min at RT) at day 9 and day 12; using FITC and PE conjugated mAbs. Antibodies used are from BD Pharmingen: Sca (PE), CD11b (FITC), Gr-1 ([…]), CD86 (PE), CD14 (PE), CD80 (PE), I-Ab (PE), CD40 (PE) and CD32.1/16.1 (FITC) from Miltenyi. Fluorescence analysis is performed on a FACScan flow cytometer ([…]) after acquisition of 10,000 events.

Molecules are shown by their SMILES.

In the case of `CC1=C(/C=C/C(C)=C/C=C/C(C)=C/C(=O)O)C(C)(C)CCC1` [ATRA, all-trans retinoic acid], the “CD80, I-A^b and Sca+ expression” value (by day 9) is listed as “marked downregulation”. The “expression of CD40 and CD80” value (by day 12) is recorded as “marked downregulation”.
